Patent US9669095B2, “Cyclosporin analogues for preventing or treating hepatitis C infection” (Enanta Pharmaceuticals, Inc., priority 2014, dated 2017)
*1 amine or outer side, *2 acyl side, *3 side chain or, on linkers, in order; H or OH if unused. Where a SMILES comes first, the peptide text is derived from it. [ ]: non-standard residue; d: D form. X1 = C/C=C/C[C@@H](C)C1ON([*:1])[C@@H]1C(=O)[*:2]; X2 = CNCC(C)(C)[C@@H](C(=O)[*:2])N(C)[*:1]; NMeL = CN[C@@H](CC(C)C)C(=O)O; NMeV = CN[C@H](C(=O)O)C(C)C; dNMeA = CN[C@H](C)C(=O)O; Abu = CC[C@H](N)C(=O)O

Tested on: HCV 1a genotype
Type: cell-based, hepatitis C virus
Details: Genotype-1a replicon, Luciferase assay, 72 hours

## C/C=C/C[C@@H](C)C1ON2C(=O)[C@H](C(C)C)N(C)C(=O)[C@H](CC(C)C)N(C)C(=O)[C@H](CC(C)C)N(C)C(=O)[C@@H](C)NC(=O)[C@H](C)NC(=O)[C@H](CC(C)C)N(C)C(=O)[C@H](C(C)C)NC(=O)[C@H](C(C)(C)CNC)N(C)C(=O)[C@@H](C)N(C)C(=O)[C@H](CC)NC(=O)[C@H]12 (stereo partly shown) [Example 1] (cyclo(A[dA][NMeL][NMeL][NMeV][X1][Abu][dNMeA][X2]V[NMeL]))
  EC50: 10 to 100 nM
